Our source for the IC50 values is patent publication US11807646B2, “4-hydroxypiperidine derivatives and their use as inhibitors of ubiquitin specific protease 19 (USP19)” (ALMAC DISCOVERY LIMITED, priority 2018, dated 2023).

A word on the IC50: it is the concentration at which inhibition is half-maximal.

Sequence of USP19 (O94966 whole entry): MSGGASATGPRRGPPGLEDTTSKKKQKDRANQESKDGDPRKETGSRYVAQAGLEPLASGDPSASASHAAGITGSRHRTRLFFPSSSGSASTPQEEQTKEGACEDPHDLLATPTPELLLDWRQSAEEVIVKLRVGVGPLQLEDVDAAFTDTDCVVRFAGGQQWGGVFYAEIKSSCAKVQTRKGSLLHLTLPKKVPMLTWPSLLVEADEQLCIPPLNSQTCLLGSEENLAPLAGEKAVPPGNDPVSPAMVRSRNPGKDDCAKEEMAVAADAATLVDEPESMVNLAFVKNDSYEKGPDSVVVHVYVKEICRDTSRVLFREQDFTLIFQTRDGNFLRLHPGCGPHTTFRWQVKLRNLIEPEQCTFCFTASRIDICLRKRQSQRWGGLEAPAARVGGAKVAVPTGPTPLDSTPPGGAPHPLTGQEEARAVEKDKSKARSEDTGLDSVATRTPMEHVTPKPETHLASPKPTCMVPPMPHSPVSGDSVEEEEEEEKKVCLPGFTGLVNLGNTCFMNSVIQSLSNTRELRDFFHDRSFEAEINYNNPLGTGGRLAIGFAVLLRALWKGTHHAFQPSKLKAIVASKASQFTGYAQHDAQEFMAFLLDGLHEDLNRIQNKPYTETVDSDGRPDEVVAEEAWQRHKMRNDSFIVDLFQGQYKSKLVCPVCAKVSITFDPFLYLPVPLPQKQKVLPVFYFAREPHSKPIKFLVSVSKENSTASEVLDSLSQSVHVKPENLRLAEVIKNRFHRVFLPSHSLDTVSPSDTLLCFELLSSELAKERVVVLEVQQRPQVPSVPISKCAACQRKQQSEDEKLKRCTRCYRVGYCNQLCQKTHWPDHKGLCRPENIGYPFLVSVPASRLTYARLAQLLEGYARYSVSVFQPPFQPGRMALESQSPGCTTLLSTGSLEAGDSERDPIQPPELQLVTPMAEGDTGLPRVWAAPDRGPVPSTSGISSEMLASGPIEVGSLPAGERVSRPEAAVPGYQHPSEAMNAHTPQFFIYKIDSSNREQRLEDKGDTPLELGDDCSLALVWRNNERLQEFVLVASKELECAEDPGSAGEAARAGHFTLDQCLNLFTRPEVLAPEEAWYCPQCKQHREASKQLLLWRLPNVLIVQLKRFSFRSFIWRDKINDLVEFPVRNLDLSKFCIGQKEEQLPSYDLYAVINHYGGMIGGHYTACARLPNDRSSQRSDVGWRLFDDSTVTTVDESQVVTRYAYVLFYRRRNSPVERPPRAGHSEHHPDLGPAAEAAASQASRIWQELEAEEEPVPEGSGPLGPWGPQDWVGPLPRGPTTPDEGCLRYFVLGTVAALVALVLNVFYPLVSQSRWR

This experiment has as its target USP19 (Homo sapiens (Human), UniProt O94966). Put plainly: USP19 fluorescence polarization (FP) homogeneous assay with Ubiquitin-Lys-TAMRA substrate. The experiment is classed as biochemical. The conditions noted are these: full-length USP19 2.5 nM, Ub substrate 500 nM, 30 min pre-incubation at rt; average of at least two duplicate experiments. As to the method: Unless otherwise stated, all other reagents were purchased from Sigma. Enzymatic reactions were conducted in black flat bottom polystyrene 384-well plates (Nunc) and 30 μL total volume. […] Inhibitors were stored as 10 mM DMSO stocks in an inert environment (low humidity, dark, low oxygen, room temperature) using the Storage Pod System and serial dilutions were prepared in buffer just prior to the assay (from 200 μM to 2 pM, 8-18 data point curve). Following incubation at rt for 30 min, the enzymatic reactions were initiated by dispensing the Ub substrate (500 nM, 10 μL). FP was measured every 15 min over a period of 90 min (within the linear range of the assay) using a Synergy 4 plate reader (BioTek) exciting at 530 nm and measuring the amount of parallel and perpendicular light at 575 nm. The FP signal was subsequently normalized to the no compound control.
On the technique in general: In fluorescence polarisation assays a small probe gives low polarisation when free and higher when bound to something large.
Take `O=C1COCCN1CC1(O)CCN(C(=O)N2CCOC[C@H]2c2ccccc2)CC12CCCC2` (stereo partly drawn) [Example 117, 4-((10-Hydroxy-7-((R)-3-phenylmorpholine-4-carbonyl)-7-azaspiro[4.5]decan-10-yl)methyl)morpholin-3-one]: the concentration for half-maximal inhibition (IC50) lay within 0.5 to 5 µM. The result for `CC(CC(=O)N1CCC(O)(CN2CC(Cc3ccccc3)CC2=O)C(C)(C)C1)c1ccccc1` (centres unmarked) [Example 44, 4-Benzyl-1-((4-hydroxy-3,3-dimethyl-1-(3-phenylbutanoyl)piperidin-4-yl)methyl)pyrrolidin-2-one] reads 50 to 250 µM; that for `C[C@H](CC1CCCCC1)C(=O)N1CC[C@@](O)(Cn2cc(N=S(C)(C)=O)c(-c3ccccc3F)cc2=O)C(C)(C)C1` [Example 66, 1-(((S)-1-((R)-3-Cyclohexyl-2-methylpropanoyl)-4-hydroxy-3,3-dimethylpiperidin-4-yl)methyl)-5-((dimethyl(oxo)-λ^6-sulfaneylidene)amino)-4-(2-fluorophenyl)pyridin-2(1H)-one], 0.5 to 5 µM; that for `C[C@H](CC(F)(F)F)C(=O)N1CCC(O)(Cn2ccc3ccc(F)cc3c2=O)C2(CCCC2)C1` (stereo partly drawn) [Example 135, 7-Fluoro-2-((10-hydroxy-7-((R)-4,4,4-trifluoro-2-methylbutanoyl)-7-azaspiro[4.5]decan-10-yl)methyl)isoquinolin-1(2H)-one], 5 to 50 µM. For `C[C@H](CC1CCCCC1)C(=O)N1CC[C@](O)(Cn2cc(N=S(C)(C)=O)c(-c3ccccc3F)cc2=O)C(C)(C)C1` [Example 65, 1-(((R)-1-((R)-3-Cyclohexyl-2-methylpropanoyl)-4-hydroxy-3,3-dimethylpiperidin-4-yl)methyl)-5-((dimethyl(oxo)-λ^6-sulfaneylidene)amino)-4-(2-fluorophenyl)pyridin-2(1H)-one], the half-maximal inhibitory concentration (IC50) is 50 to 250 µM.
